Patent publication US20210378281A1, “INHIBITION OF SENSORY IRRITATION DURING CONSUMPTION OF NON-SMOKEABLE TOBACCO PRODUCTS” (priority 2010, published 2021)
Where “and” joins values, the source holds several entries; their conditions need not be identical. Identical values can stand only once. Entries after “also recorded” stand apart in the source; their conditions may differ.

Tests used:
[1] = system: tongues of human volunteers; experiment: pre-treatment with camphor on sensory irritation from nicotine, tongues of human volunteers; type: in vivo; conditions: camphor 25, 50 or 100 ppm, 20 microliters on strip for 30 seconds before 0.1-0.3% nicotine
From the text: FIGS. 1 and 2 show the results of a study on the effect of pre-treatment with camphor on sensory irritation from nicotine. Camphor was applied to tongues of human volunteers prior to application of a nicotine solution. Randomized sides of tongues were selected for application of 20 microliters of 0 ppm, 25 ppm, 50 ppm, or 100 ppm of camphor on a strip (thus, about […], respectively) for 30 seconds. Then, the subjects sipped, rinsed, then spit 0.1%, 0.2%, or 0.3% of a nicotine solution for a 5 second application. Participants were then asked which side of the tongue has the strongest burning sensation. Responses were collected both immediately (within 5 seconds) (FIG. 1) and after 30 seconds (FIG. 2). Controls received no camphor, and a baseline was established at zero camphor.

[2] = system: mouth of participants; experiment: threshold of irritation from camphor, oral sip and swish of camphor solution; type: in vivo, human; set-up: key to irritation felt at 200 ppm / irritation felt at 300 ppm / irritation felt at 400 ppm / irritation felt at 1000 ppm / irritation felt at 2000 ppm / irritation felt at 4000 ppm / irritation felt at 6000 ppm: Y: the participant felt irritation at the indicated concentration; N: no irritation was felt
Method: A further study was conducted to determine the threshold at which camphor itself would cause sensory irritation.
Each test used two milliliters (2 ml) of a camphor solution. The camphor was dissolved in ethanol and further diluted in water. Participants received sequentially increasing concentration of camphor. Nine participants received samples including food grade racemic camphor, with concentrations of 200, 300, 400, […] 1000, 2000, 4000, 6000 ppm (corresponding to about […] per sample, respectively).
Participants wore nose clips during evaluation. Each participant sipped the sample, swished it in the mouth for 10 seconds, then spat it out. Each participant then indicated whether irritation was perceived. Between evaluations of each sample, participants rinsed with water and waited for one minute.
The left-most column indicates the participant number of each individual participant.

[3] = system: mouth of subjects using oral tobacco; experiment: snus pouches with camphor, perceived burning in the mouth, 2AFC design; type: in vivo, human
Method: A further study was conducted to determine if camphor affected perceived burning in the mouth of subjects using oral tobacco. Participants were given two snus pouch samples to use simultaneously, one in each side of the mouth. One sample was a control pouch with no camphor added and the other contained various concentrations of camphor ([…], based on tobacco weight, respectively). The hand-made test samples were constructed using unflavored tobacco (12% oven volatiles) to prevent any possible interference of the flavor system with the objective of the study. In preparing the pouches, the camphor was dissolved in 95% ethanol, with the control pouches receiving the ethanol only. Ten (10) microliters of one of the solutions was applied to each sample pouch (5 microliters per side). […] Responses were recorded on paper by the experimenter. […] Following each evaluation, participants were asked to give details regarding where the burning was felt and to provide any open-ended comments regarding their experience, which were recorded on paper by the experimenter. Participants repeated the sensory evaluation procedures an additional six (6) times, with a maximum of two (2) pairs being evaluated each day.

[4] = system: nerve fibers; conditions: isolated mouse trachea model; cited from earlier work
[5] = system: TRPV1 receptors; conditions: increasing their responsiveness; J. Neurophysiol., 91: 1482-1491, 2004; cited from earlier work
[6] = biological target: TRPA1 receptors (Homo sapiens, UniProt O75762); conditions: cited from earlier work
Sequence of TRPA1 receptors (O75762 whole entry): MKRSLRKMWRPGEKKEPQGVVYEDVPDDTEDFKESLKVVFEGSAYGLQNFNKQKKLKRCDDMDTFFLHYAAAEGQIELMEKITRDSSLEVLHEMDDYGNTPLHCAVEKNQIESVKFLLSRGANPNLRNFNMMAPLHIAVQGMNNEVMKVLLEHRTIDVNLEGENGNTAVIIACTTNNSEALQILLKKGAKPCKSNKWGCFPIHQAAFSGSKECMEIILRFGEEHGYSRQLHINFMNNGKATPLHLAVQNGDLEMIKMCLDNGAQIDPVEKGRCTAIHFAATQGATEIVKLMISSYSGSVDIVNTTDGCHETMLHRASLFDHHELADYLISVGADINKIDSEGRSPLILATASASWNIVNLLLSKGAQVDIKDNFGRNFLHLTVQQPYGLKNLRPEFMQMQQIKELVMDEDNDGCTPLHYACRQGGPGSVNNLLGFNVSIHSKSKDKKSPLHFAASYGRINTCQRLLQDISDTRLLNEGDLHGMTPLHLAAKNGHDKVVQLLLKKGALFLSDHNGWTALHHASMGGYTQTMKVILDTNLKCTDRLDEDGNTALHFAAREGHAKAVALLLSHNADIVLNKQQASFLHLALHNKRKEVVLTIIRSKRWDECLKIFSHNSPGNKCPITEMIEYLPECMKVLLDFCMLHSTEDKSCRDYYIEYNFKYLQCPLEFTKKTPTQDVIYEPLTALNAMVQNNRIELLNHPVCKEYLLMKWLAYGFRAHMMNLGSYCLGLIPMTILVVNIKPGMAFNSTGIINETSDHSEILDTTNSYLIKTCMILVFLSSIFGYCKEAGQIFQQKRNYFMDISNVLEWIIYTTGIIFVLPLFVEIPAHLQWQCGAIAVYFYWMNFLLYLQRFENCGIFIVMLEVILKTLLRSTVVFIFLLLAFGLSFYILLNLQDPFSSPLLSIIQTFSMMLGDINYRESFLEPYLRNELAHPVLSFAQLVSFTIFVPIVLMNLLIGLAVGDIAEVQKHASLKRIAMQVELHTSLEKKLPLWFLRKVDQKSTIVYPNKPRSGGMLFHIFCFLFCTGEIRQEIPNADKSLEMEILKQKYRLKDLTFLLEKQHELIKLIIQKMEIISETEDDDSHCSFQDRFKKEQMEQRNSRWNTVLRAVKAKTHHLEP

| Structure (SMILES) | perceived burning from nicotine, 30 seconds after initial exposure ([1]; response after 30 seconds) | perceived burning from nicotine, immediately ([1]; response immediately (within 5 seconds)) | irritation felt at 200 ppm ([2]; 200 ppm camphor, 2 ml solution, swished 10 seconds, one line per participant) | irritation felt at 300 ppm ([2]; 300 ppm camphor, 2 ml solution, swished 10 seconds, one line per participant) | irritation felt at 400 ppm ([2]; 400 ppm camphor, 2 ml solution, swished 10 seconds, one line per participant) | irritation felt at 1000 ppm ([2]; 1000 ppm camphor, 2 ml solution, swished 10 seconds, one line per participant) | irritation felt at 2000 ppm ([2]; 2000 ppm camphor, 2 ml solution, swished 10 seconds, one line per participant) | irritation felt at 4000 ppm ([2]; 4000 ppm camphor, 2 ml solution, swished 10 seconds, one line per participant) | irritation felt at 6000 ppm ([2]; 6000 ppm camphor, 2 ml solution, swished 10 seconds, one line per participant) | concentration at which a few participants were sensitive ([2]; a few participants, sensitive only at higher concentrations) | concentration at which most participants perceived tingling ([2]; most participants) | mean threshold for producing irritation ([2]; n=9) [ppm] | Notes (sensation described by participant) ([2]; one line per participant, concentrations in ppm) | time at which the effect was strongest ([3]; 12 nanogram (50 ppm) camphor pouch, asked at 2, 5 and 10 minutes) [min] | reduction of oral burning from snus pouch ([3]; 12 nanogram (corresponding to 50 ppm) camphor per pouch versus control pouch) | inhibition of activation of nerve fibers induced by the nicotinic agonist nicotine [4] | sensitization of TRPV1 receptors [5] | sensitization of TRPA1 receptors [6] |
| --- | --- | --- | --- | --- | --- | --- | --- | --- | --- | --- | --- | --- | --- | --- | --- | --- | --- | --- |
| CC12CCC(CC1=O)C2(C)C (racemic) [camphor] | significantly reduced perceived burning from nicotine | significantly reduced perceived burning from nicotine | Y (3×) and N (6×) | Y (3×) and N (6×) | Y (4×) and N (4×) | N and Y (2×) | Y | Y | Y | 1000-2000 ppm | 200-300 ppm | 655 | Tingling at 300, tingling no burning; also recorded: No Burning, slight tingling on edges; also recorded: Some burning and stinging at 200, | 10 | most effective in reducing oral burning | effectively inhibit activation of nerve fibers |  |  |
| CN1CCCC1c1cccnc1 (stereo not drawn) [nicotine] |  |  |  |  |  |  |  |  |  |  |  |  |  |  |  |  | sensitize TRPV1 receptors | as well as TRPA1 receptors |
